Values quoted from earlier work, collected in patent US20110151497A1, “METABOLOMIC PROFILING OF PROSTATE CANCER” (THE REGENTS OF THE UNIVERSITY OF MICHIGAN, priority 2009, published 2011).

Conditions: humans, isotope labeling

SMILES: CCCCCCCCCCCCCCCCCC(=O)O [stearic acid]
- fraction of dietary stearic acid oxidatively desaturated to oleic acid relative to fraction of palmitic acid converted to palmitoleic acid: 2.4 times
